Experimental data as given in PubChem BioAssay AID328 (DTP/NCI, 2004).
Values joined by “and” are separate entries in the source; they are usually repeats but may differ in a detail not shown here. Equal values may be shown once. Inconclusive results and toxic doses are left out.

Test system: BDF1 mice, P388 leukemia ip, median survival T/C
Test: NCI In Vivo Anticancer Drug Screen. Data for tumor model P388 Leukemia (intraperitoneal) in B6D2F1 (BDF1) mice
Conditions: endpoint: median survival time, higher = longer survival
Method in brief: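 Reported as T/C, where T is the survival measurement in dosed animals and C the same measurement in vehicle controls.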

[1] = dose: 100.0 mg/kg/injection, schedule: Q04DX003 (ip), vehicle: saline
[2] = dose: 200.0 mg/kg/injection, schedule: Q04DX003 (ip), vehicle: saline
[3] = dose: 100.0 mg/kg/injection, schedule: Q01DX009 (ip), vehicle: saline with Tween-80
[4] = dose: 200.0 mg/kg/injection, schedule: Q01DX009 (ip), vehicle: saline with Tween-80
[5] = dose: 400.0 mg/kg/injection, schedule: Q01DX009 (ip), vehicle: saline with Tween-80
[6] = dose: 50.0 mg/kg/injection, schedule: Q01DX009 (ip), vehicle: saline with Tween-80

With `CCc1ccc(NC(=O)N(CCCl)N=O)cc1` the T/C (dose: 0.62 mg/kg/injection, schedule: Q04DX003 (ip), vehicle: Klucel (hydroxypropylcellulose) (HPC)) was 109 % of control, the T/C (dose: 0.8 mg/kg/injection, schedule: Q01DX009 (ip), vehicle: gum acacia) was 158 % of control and the T/C (dose: 1.3 mg/kg/injection, schedule: Q01DX009 (ip), vehicle: gum acacia) was 154 % of control. For the same molecule, the T/C (dose: 2.0 mg/kg/injection, schedule: Q01DX009 (ip), vehicle: gum acacia) was 153 % of control and 187 % of control, the T/C (dose: 3.0 mg/kg/injection, schedule: Q01DX009 (ip), vehicle: gum acacia) was 176 % of control and the T/C (dose: 4.5 mg/kg/injection, schedule: Q01DX009 (ip), vehicle: gum acacia) was 196 % of control. For the same molecule, the T/C (dose: 5.0 mg/kg/injection, schedule: Q04DX003 (ip), vehicle: Klucel (hydroxypropylcellulose) (HPC)) was 177 % of control and 204 % of control, the T/C (dose: 7.0 mg/kg/injection, schedule: Q01DX009 (ip), vehicle: gum acacia) was 230 % of control and 236 % of control and the T/C (dose: 8.0 mg/kg/injection, schedule: Q04DX003 (ip), vehicle: Klucel (hydroxypropylcellulose) (HPC)) was 214 % of control. For the same molecule, the T/C (dose: 11.0 mg/kg/injection, schedule: Q01DX009 (ip), vehicle: gum acacia) was 250 % of control, the T/C (dose: 12.0 mg/kg/injection, schedule: Q04DX003 (ip), vehicle: Klucel (hydroxypropylcellulose) (HPC)) was 238 % of control and the T/C (dose: 17.0 mg/kg/injection, schedule: Q01DX009 (ip), vehicle: gum acacia) was 196 % of control. The T/C (dose: 18.0 mg/kg/injection, schedule: Q04DX003 (ip), vehicle: Klucel (hydroxypropylcellulose) (HPC)) was 233 % of control and 285 % of control, the T/C (dose: 25.0 mg/kg/injection, schedule: Q01DX009 (ip), vehicle: gum acacia) was 212 % of control and the T/C (dose: 25.0 mg/kg/injection, schedule: Q04DX003 (ip), vehicle: Klucel (hydroxypropylcellulose) (HPC)) was 300 % of control. For the same molecule, the T/C (dose: 37.0 mg/kg/injection, schedule: Q04DX003 (ip), vehicle: Klucel (hydroxypropylcellulose) (HPC)) was 300 % of control.

For `Cc1c2oc3c(C)ccc(C(=O)NCc4ccccc4)c3nc-2c(C(=O)NCc2ccccc2)c(N)c1=O`, the T/C (dose: 100.0 mg/kg/injection, schedule: Q04DX002 (sc), vehicle: olive oil, sesame oil, peanut oil) was 99 % of control, the T/C (dose: 200.0 mg/kg/injection, schedule: Q04DX002 (sc), vehicle: olive oil, sesame oil, peanut oil) was 98 % of control and the T/C (dose: 400.0 mg/kg/injection, schedule: Q04DX002 (sc), vehicle: olive oil, sesame oil, peanut oil) was 101 % of control.

`CCN(CC)C(=O)c1ccncc1` was tested, and the T/C [1] was 109 % of control and the T/C [2] was 100 % of control.

In the case of `Cc1[nH]ncc1Br`, the T/C [3] is reported as 105 % of control, the T/C [4] is reported as 98 % of control and the T/C [5] is reported as 105 % of control.

`OC(Nc1nccs1)C(Cl)(Cl)Cl` (stereo not given) was tested, and the T/C [6] was 104 % of control, the T/C [3] was 110 % of control and the T/C [4] was 94 % of control.

With `CCC(=O)O[C@H]1CC[C@H]2[C@@H]3[C@@H](C)CC4=CC(=O)CC[C@]4(C)[C@H]3CC[C@]12C` the T/C [3] was 105 % of control, the T/C [4] was 95 % of control and the T/C [5] was 95 % of control.

For `Nc1[nH]c(=S)[nH]c(=O)c1NC(=O)C1CC1`, the T/C [3] was 100 % of control, the T/C [1] was 104 % of control and the T/C [4] was 100 % of control. The T/C [2] was 104 % of control, the T/C [5] was 100 % of control and the T/C (dose: 400.0 mg/kg/injection, schedule: Q04DX003 (ip), vehicle: saline) was 100 % of control.

With `NC(=S)c1ccc[n+](Cc2c(Cl)cccc2Cl)c1` the T/C (dose: 50.0 mg/kg/injection, schedule: Q04DX002 (ip), vehicle: saline with Tween-80) was 110 % of control and the T/C (dose: 100.0 mg/kg/injection, schedule: Q04DX002 (ip), vehicle: saline with Tween-80) was 101 % of control.

With `CC[CH2][Sn]([CH2]CC)([CH2]CC)[O][Sn]([CH2]CC)([CH2]CC)[CH2]CC` the T/C (dose: 0.25 mg/kg/injection, schedule: Q01DX009 (ip), vehicle: saline with Tween-80) was 90 % of control, the T/C (dose: 0.25 mg/kg/injection, schedule: Q04DX003 (ip), vehicle: saline with Tween-80) was 100 % of control and the T/C (dose: 0.5 mg/kg/injection, schedule: Q01DX009 (ip), vehicle: saline with Tween-80) was 95 % of control. The T/C (dose: 0.5 mg/kg/injection, schedule: Q04DX003 (ip), vehicle: saline with Tween-80) was 104 % of control, the T/C (dose: 1.0 mg/kg/injection, schedule: Q01DX009 (ip), vehicle: saline with Tween-80) was 100 % of control and the T/C (dose: 1.0 mg/kg/injection, schedule: Q04DX003 (ip), vehicle: saline with Tween-80) was 100 % of control.

For `CC[CH2][Sn]([Cl])([Cl])[CH2]CC`, the T/C (dose: 0.1 mg/kg/injection, schedule: Q01DX009 (ip), vehicle: Klucel (hydroxypropylcellulose) (HPC)) was 100 % of control, the T/C (dose: 0.2 mg/kg/injection, schedule: Q01DX009 (ip), vehicle: Klucel (hydroxypropylcellulose) (HPC)) was 113 % of control and the T/C (dose: 0.25 mg/kg/injection, schedule: Q01DX009 (ip), vehicle: Klucel (hydroxypropylcellulose) (HPC)) was 90 % of control. For the same molecule, the T/C (dose: 0.4 mg/kg/injection, schedule: Q01DX009 (ip), vehicle: Klucel (hydroxypropylcellulose) (HPC)) was 113 % of control, the T/C (dose: 0.5 mg/kg/injection, schedule: Q01DX009 (ip), vehicle: Klucel (hydroxypropylcellulose) (HPC)) was 100 % of control and the T/C (dose: 1.0 mg/kg/injection, schedule: Q01DX009 (ip), vehicle: Klucel (hydroxypropylcellulose) (HPC)) was 113 % of control. For the same molecule, the T/C (dose: 2.0 mg/kg/injection, schedule: Q01DX009 (ip), vehicle: Klucel (hydroxypropylcellulose) (HPC)) was 122 % of control.

For `OCCN1CCOCC1`, the T/C (dose: 100.0 mg/kg/injection, schedule: Q01DX009 (ip), vehicle: saline) was 109 % of control, the T/C (dose: 200.0 mg/kg/injection, schedule: Q01DX009 (ip), vehicle: saline) was 109 % of control and the T/C (dose: 400.0 mg/kg/injection, schedule: Q01DX009 (ip), vehicle: saline) was 109 % of control.

With `CC1=NNC(=O)/C1=C\c1ccccc1` the T/C (dose: 25.0 mg/kg/injection, schedule: Q01DX009 (ip), vehicle: saline with Tween-80) was 103 % of control, the T/C [6] was 99 % of control and the T/C [3] was 108 % of control.

With `Cn1c(=O)c(S(C)=O)c(O)c2ccccc21` (stereo not given) the T/C [6] was 118 % of control, the T/C [3] was 100 % of control and the T/C [4] was 112 % of control.

For `COC(=O)c1c(O)cc(OC)cc1OC`, the T/C (dose: 100.0 mg/kg/injection, schedule: Q01DX009 (ip), vehicle: Klucel (hydroxypropylcellulose) (HPC)) was 111 % of control, the T/C (dose: 100.0 mg/kg/injection, schedule: Q04DX003 (ip), vehicle: Klucel (hydroxypropylcellulose) (HPC)) was 100 % of control and the T/C (dose: 200.0 mg/kg/injection, schedule: Q01DX009 (ip), vehicle: Klucel (hydroxypropylcellulose) (HPC)) was 100 % of control. For the same molecule, the T/C (dose: 200.0 mg/kg/injection, schedule: Q04DX003 (ip), vehicle: Klucel (hydroxypropylcellulose) (HPC)) was 95 % of control, the T/C (dose: 400.0 mg/kg/injection, schedule: Q01DX009 (ip), vehicle: Klucel (hydroxypropylcellulose) (HPC)) was 100 % of control and the T/C (dose: 400.0 mg/kg/injection, schedule: Q04DX003 (ip), vehicle: Klucel (hydroxypropylcellulose) (HPC)) was 95 % of control.

In the case of `c1ccn2c(CSCc3nnc4ccccn34)nnc2c1`, the T/C [6] is reported as 100 % of control, the T/C [3] is reported as 109 % of control and the T/C [4] is reported as 109 % of control.

With `CC[CH2][Pb]([CH2]CC)([CH2]CC)[O]C(=O)C(Cl)(Cl)Cl` the T/C (dose: 3.12 mg/kg/injection, schedule: Q01DX009 (ip), vehicle: saline with Tween-80) was 122 % of control, the T/C (dose: 6.25 mg/kg/injection, schedule: Q01DX009 (ip), vehicle: saline with Tween-80) was 121 % of control and the T/C (dose: 12.5 mg/kg/injection, schedule: Q01DX009 (ip), vehicle: saline with Tween-80) was 108 % of control.

With `CC1(c2ccc(Cl)s2)NC(=O)NC1=O` (stereo not given) the T/C (dose: 300.0 mg/kg/injection, schedule: Q04DX003 (ip), vehicle: saline with Tween-80) was 100 % of control, the T/C (dose: 400.0 mg/kg/injection, schedule: Q04DX003 (ip), vehicle: saline with Tween-80) was 98 % of control and the T/C (dose: 600.0 mg/kg/injection, schedule: Q04DX003 (ip), vehicle: saline with Tween-80) was 86 % of control.
